In patent US20200290950A1, “ALKAMIDE COMPOUNDS AND USES THEREOF” (NORTH CAROLINA STATE UNIVERSITY, priority 2017, published 2020):

Experiments:
BMMCs = assay: Toluidine blue staining of granules in BMMCs; assay type: cell-based, mouse
Method: FIG. 2. A15 inhibits granule release from BMMCs. […] BMMCs were cytocentrifuged onto a glass slide, fixed, stained with toluidine blue (1%, pH<1) for 30 min, and washed before observing microscopically. Images were acquired at 400× magnification and are representative.

RBL-2H3 cells = assay: Calcium assay, Fluo-4 (Example 3); assay type: cell-based, rat
Method: FIGS. 22A-22D. The alkamide fatty acid is necessary for inhibition of calcium influx. RBL-2H3 cells were plated overnight, incubated with Fluo-4 AM for 1 h, stimulated by 1 μM A23187 (FIG. 22A) or 5 ng/mL DNP-BSA (FIG. 22B) in the absence or presence of each alkamide, and fluorescence was read for 2 mins every 5 secs. Data are presented as the mean change in RFU of 4 experiments. Percent inhibition of calcium influx was calculated for A23187 (FIG. 22C) and DNP-BSA (FIG. 22D) stimulated cells at 2 mins. *P<0.05, **P<0.01, and ***P<0.001 one-way ANOVA with Dunnett's post hoc test compared to A15.
RBL-2H3 cells (1.0×10^5 cells) were incubated overnight in a 96 well black-wall clear bottom plate with or without IgE-DNP (0.1 μg/mL) at 37° C. with 5% CO2. The assay was performed using the Fluo-4 Direct™ Calcium Assay Kit according to the manufacturer's instruction. Briefly, cells were incubated with the Fluo-4 Direct calcium reagent loading solution for 30 minutes at 37° C. with 5% CO2 then 30 mins at room temperature. Prior to stimulation, the well baseline fluorescence was measured every 5 seconds over 1 minute using a BioTek Synergy HT microplate reader with 485/20 nm excitation and 528/20 nm emission filters. Cells were stimulated with 1 μM A23187 or 5 ng/mL DNP (IgE-DNP) in the absence or presence of each compound, and the fluorescence was measured every 5 seconds over 2 minutes. The change in fluorescence (ΔRT) was calculated as the sample fluorescence minus the baseline fluorescence for each well.

TRPV1 = target: T1, TRPV1 (Mus musculus, UniProt Q704Y3); assay: Calcium response of DRG neurons to capsaicin; assay type: cell-based; settings: cultured DRG neurons, fluorescence microscopy
T1 construct: The receptors TRPA1 and TRPV1 are expressed on neurons; from tissue; host or cells: primary dorsal root ganglion neurons from mice
T1 sequence (Q704Y3 whole entry): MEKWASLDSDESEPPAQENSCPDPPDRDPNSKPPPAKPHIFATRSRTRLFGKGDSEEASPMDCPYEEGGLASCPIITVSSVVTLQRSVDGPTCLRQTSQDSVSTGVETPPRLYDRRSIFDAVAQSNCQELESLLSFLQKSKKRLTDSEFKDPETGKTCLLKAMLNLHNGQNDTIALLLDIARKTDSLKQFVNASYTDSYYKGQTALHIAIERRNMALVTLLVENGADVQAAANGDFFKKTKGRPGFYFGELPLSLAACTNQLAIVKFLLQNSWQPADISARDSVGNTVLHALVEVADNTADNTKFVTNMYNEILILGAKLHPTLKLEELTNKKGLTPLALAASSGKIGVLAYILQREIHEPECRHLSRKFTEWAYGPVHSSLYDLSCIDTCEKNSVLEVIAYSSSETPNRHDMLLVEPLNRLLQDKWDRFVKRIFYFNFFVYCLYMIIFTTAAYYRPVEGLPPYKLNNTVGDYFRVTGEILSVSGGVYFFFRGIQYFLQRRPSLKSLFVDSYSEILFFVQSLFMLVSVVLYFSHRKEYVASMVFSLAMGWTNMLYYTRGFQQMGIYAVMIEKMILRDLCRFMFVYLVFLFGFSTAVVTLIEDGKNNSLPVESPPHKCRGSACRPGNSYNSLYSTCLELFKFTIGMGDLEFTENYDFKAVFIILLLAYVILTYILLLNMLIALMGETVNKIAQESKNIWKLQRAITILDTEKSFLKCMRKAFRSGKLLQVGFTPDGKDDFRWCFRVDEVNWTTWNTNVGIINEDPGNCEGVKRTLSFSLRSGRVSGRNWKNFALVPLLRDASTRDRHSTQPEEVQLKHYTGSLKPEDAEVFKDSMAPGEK
Source text: FIG. 11. Calcium response from DRG sensory neurons to alkamide of transient receptors. Mustard a TRPA1-receptor agonist activates DRG neurons in gray (A) and capsaicin, an agonist for TRPV1-receptors in the DRG neurons in red (B). Ligand A15 inhibits both TRPA1 and TRPV1 receptors activation in orange; however, 85Y a synthetic ligand only reduces the inhibition of TRPA1 but not TRPV1 receptors in blue. Total number of neurons (n)=135-145; p≤0.05.
Several different model systems were utilized for these experiments. In one model, dorsal root ganglia were obtained from mice and the neurons cultured in vitro. The neurons were then stimulated in the presence/absence of A15 and YM8-85 and the calcium responses monitored by fluorescence microscopy. In the second model, the alkamides were applied to mouse skin in mineral oil. The reactions of these mice to heat, cold, and tactile stimulation was then compared with mice that had not received treatment with A15. […] Alkamides were applied to sensitized animals and then ear swelling and bouts of scratching were monitored.
In vitro DRG neuron responses. […] Neurons were stimulated with mustard (allyl isothiocyanate) (A) an agonist for the receptor TRPA-1 or capsaicin (B) an agonist for the receptor TRPV-1 and calcium responses were measured in individual neurons by fluorescence microscopy. […]

[1] = TDI-induced scratching bouts (itch); assay type: in vivo, mouse
Source text: Several different model systems were utilized for these experiments. In one model, dorsal root ganglia were obtained from mice and the neurons cultured in vitro. The neurons were then stimulated in the presence/absence of A15 and YM8-85 and the calcium responses monitored by fluorescence microscopy. In the second model, the alkamides were applied to mouse skin in mineral oil. The reactions of these mice to heat, cold, and tactile stimulation was then compared with mice that had not received treatment with A15. In a third model, mice were sensitized to the chemical compound toluene-2,4-diisocyanate (TDI). TDI is an industrial chemical which causes hypersensitive skin lesions and itching in exposed humans and animals. The physiological response to TDI is complex involving type 2 T lymphocytes, cytokines, mast cells, and neurons. Alkamides were applied to sensitized animals and then ear swelling and bouts of scratching were monitored.
The effects of A15 on TDI-induced itch. The itch response was also monitored in mice sensitized and treated with TDI. Treated mice were video recorded and the number of scratching bouts quantified by an observer.

CCCCCCC/C=C/C=C/C(=O)NCC(C)C [A15, (2E,4E)-N-Isobutyldodeca-2,4-dienamide]
toluidine blue staining, compound alone (BMMCs; 100 μM A15 alone, 30 min): did not noticeably affect staining
A23187-induced reduction of toluidine blue staining (granule release) (BMMCs; 100 μM A15 with 1 μM A23187, 30 min): blocked
percent inhibition of calcium influx (RBL-2H3 cells; 5 ng/mL DNP-BSA, at 2 minutes): 66%
percent inhibition of calcium influx (RBL-2H3 cells; 1 μM A23187, at 2 minutes): 76%
DRG neuron calcium response to capsaicin (TRPV1 agonist) (TRPV1): inhibited
scratching bouts in TDI treated mice ([1]; higher dose 1.0%): strong significant inhibition of scratching
scratching bouts in TDI treated mice ([1]; lower dose 0.1%): strong significant inhibition of scratching
